Holding throughout (format): biochemical
For one test, the system named is MYC. Kind of test: In vitro transcription-translation (IVTT) assay, MYC reporter. The settings on record: IVTT assay, HeLa S3 lysate, MYC reporter, normalized sfGFP/mCherry ratio; half-log dilutions 30 μM-0.1 μM, 2 hrs at 30° C. A digest of the protocol: (§1)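 Reporter: mCherry, P2A, then 3×FLAG-target peptide-sfGFP fusion, IRES-initiated; HeLa S3 lysate IVTT; cpd dilutions 30 μM−0.1 μM half-log in 100% DMSO (dilution-plate conc); DNA added last; 2 h, 30° C; PBS quench.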

In a further test the test system is CCNE1. Kind of test: In vitro transcription-translation (IVTT) assay, CCNE1 reporter. To be noted: HeLa S3 lysate, sfGFP/mCherry ratio. Here is the method: In vitro transcription-translation assay setup: Each assay includes a master mix containing lysate and shared components, a 96-well plate containing compound titrations for testing, a 96-well DNA plate with reporter constructs to be tested, 96-well skirted PCR plates, and 96-well flat-bottom, black, fluorescent assay plates. Reaction materials setup: (A) Master mix—15 mL conical tube (3 mL of HeLa S3 Lysate described above; 0.6 mL of ThermoFisher Accessory Proteins (#88882); 1.2 ml of ThermoFisher Reaction Mix (#88882); 0.54 mL of nuclease-free Water); (B) 96-Well Master Mix+Compound Plate (Half-log dilutions (30 μM−0.1 μM) of 4 compounds of interest are prepared in 100% DMSO); 96-Well DNA Plate (Five DNA constructs are plated into single columns within the plate. Row 1 of the column contains nuclease free H2O, all other wells contain 110 ng/μL plasmid DNA). Reactions are started by mixing 155 μL of master mix and 3.5 μL of compound serial dilutions, then 9.1 μL of master mix+compound mixture is aliquoted across 5 96-well plates. Reactions begin with final addition of 2 μL of DNA for a 11.1 μL reaction volume in each well. The entire plate is sealed, and incubated for 2 hrs at 30° C. After 2 hrs, quench the assay using 45 μL of PBS, and transfer 50 μL to a flat-bottom black microplate Quantify the sfGFP and mCherry signals from each well on each plate, taking 3 reads of each plate, and perform data analysis below.
In vitro transcription-translation assay data analysis: Each plate is read three times in channels for both sfGFP and mCherry signals. The average signal across these 3 reads is then calculated for further analysis. Control wells containing no DNA reporter are subtracted from reporter wells in the same column to remove auto-fluorescence of the lysate. Then, the ratio of sfGFP/mCherry is calculated per well, and these ratios are averaged across the triplicate experiments on the same plate. Finally, the ratio of each titration concentration is normalized to the no drug control to create the normalized stalling metric. The error on this measurement is determined by propagating error through the averaging and normalization steps. Values are plotted and fit for IC50 determination for each test sequence and titration of compound.

The subject of another test is MCL-1. Kind of test: In vitro transcription-translation (IVTT) assay, MCL-1 reporter. The settings on record: IVTT assay, HeLa S3 lysate, sfGFP/mCherry ratio; read-out: MCL1 IC50. In short, it runs like this:
as §1

pIC50: −log10 of the molar value.

On to `O=C(NCCOC(F)(F)F)O[C@@H]1[C@@H](O)CN[C@@H]1Cc1ccc(C(F)F)cc1` [V192930, (2R,3S,4S)-2-(4-(difluoromethyl)benzyl)-4-hydroxypyrrolidin-3-yl (2-(trifluoromethoxy)ethyl)carbamate], for which the pIC50 in the test on MYC, with CCNE1 and in the test with MCL-1 was over 5.00 in each case.
Take `O=C(NCc1ccc2c(c1)CNC2)O[C@@H]1[C@@H](O)CN[C@@H]1Cc1ccc(-c2cc(C(F)F)cs2)cc1` [V193165, (2R,3S,4S)-2-(4-(4-(difluoromethyl)thiophen-2-yl)benzyl)-4-hydroxypyrrolidin-3-yl (isoindolin-5-ylmethyl)carbamate]: the pIC50 in the test with MYC, in the test on CCNE1 and in the test with MCL-1 was over 5.00 in each case.
With `O=C(NCc1cc(F)cc(F)c1)O[C@@H]1[C@@H](O)CN[C@@H]1Cc1ccc(-c2cnco2)cc1` [V193071, (2R,3S,4S)-4-hydroxy-2-(4-(oxazol-5-yl)benzyl)pyrrolidin-3-yl (3,5-difluorobenzyl)carbamate], the pIC50 in the test on MYC, with CCNE1 and in the test on MCL-1 was over 5.00 each time.
Take `O=C(NCC[C@H]1CCCCNC1)O[C@@H]1[C@@H](O)CN[C@@H]1Cc1ccc(-c2cnco2)cc1` [V193012, (2R,3S,4S)-4-hydroxy-2-(4-(oxazol-5-yl)benzyl)pyrrolidin-3-yl (2-((R)-azepan-3-yl)ethyl)carbamate]: the pIC50 with MYC, in the test with CCNE1 and in the test with MCL-1 was over 5.00 in each case.
As for `O=C(NCc1cnsc1)O[C@@H]1[C@@H](O)CN[C@@H]1Cc1ccc(C(F)F)cc1` [V192929, (2R,3S,4S)-2-(4-(difluoromethyl)benzyl)-4-hydroxypyrrolidin-3-yl (isothiazol-4-ylmethyl)carbamate], the pIC50 in the test on MYC, in the test with CCNE1 and in the test with MCL-1 was over 5.00 each time.
Consider `O=C(NCc1cccc2c1CNC2)O[C@@H]1[C@@H](O)CN[C@@H]1Cc1ccc(C(F)F)cc1` [V193139, (2R,3S,4S)-2-(4-(difluoromethyl)benzyl)-4-hydroxypyrrolidin-3-yl (isoindolin-4-ylmethyl)carbamate], for which the pIC50 in the test with MYC, with CCNE1 and with MCL-1 was over 5.00 each time.
Take `O=C(NCC[C@@H]1CCN1)O[C@@H]1[C@@H](O)CN[C@@H]1Cc1ccc(-c2cnco2)c(F)c1` [V192991, (2R,3S,4S)-2-(3-fluoro-4-(oxazol-5-yl)benzyl)-4-hydroxypyrrolidin-3-yl (2-((S)-azetidin-2-yl)ethyl)carbamate]: the pIC50 in the test with MYC, with CCNE1 and with MCL-1 was over 5.00 each time.
Consider `O=C(NCc1cccc(OC(F)F)c1)O[C@@H]1[C@@H](O)CN[C@@H]1Cc1ccc(-c2cnco2)cc1` [V193068, (2R,3S,4S)-4-hydroxy-2-(4-(oxazol-5-yl)benzyl)pyrrolidin-3-yl (3-(difluoromethoxy)benzyl)carbamate], for which the pIC50 with MYC, in the test on CCNE1 and in the test on MCL-1 was over 5.00 throughout.
With `O=C(NCC[C@H]1CC2(CC2)CN1)O[C@@H]1[C@@H](O)CN[C@@H]1Cc1ccc(-c2cnco2)cc1` [V193018, (2R,3S,4S)-4-hydroxy-2-(4-(oxazol-5-yl)benzyl)pyrrolidin-3-yl (2-((R)-5-azaspiro[2.4]heptan-6-yl)ethyl)carbamate], the pIC50 with MYC, in the test with CCNE1 and with MCL-1 was over 5.00 each time.
Regarding `O=C(NCC[C@@H]1CCN1)O[C@@H]1[C@@H](O)CN[C@@H]1Cc1ccc(OC(F)F)cc1` [V192938, (2R,3S,4S)-2-{[4-(difluoromethoxy)phenyl]methyl}-4-hydroxypyrrolidin-3-yl N-{2-[(2S)-azetidin-2-yl]ethyl}carbamate], the pIC50 in the test with MYC, with CCNE1 and with MCL-1 was over 5.00 each time.
For `O=C(NCCOC(F)F)O[C@@H]1[C@@H](O)CN[C@@H]1Cc1ccc(-c2cnco2)cc1` [V193066, (2R,3S,4S)-4-hydroxy-2-(4-(oxazol-5-yl)benzyl)pyrrolidin-3-yl (2-(difluoromethoxy)ethyl)carbamate], the pIC50 in the test with MYC, with CCNE1 and in the test with MCL-1 was over 5.00 throughout.
`O=C(NCC[C@@H]1CCCCNC1)O[C@@H]1[C@@H](O)CN[C@@H]1Cc1ccc(-c2cnco2)cc1` [V193013, (2R,3S,4S)-4-hydroxy-2-{[4-(1,3-oxazol-5-yl)phenyl]methyl}pyrrolidin-3-yl N-{2-[(3S)-azepan-3-yl]ethyl}carbamate]: the pIC50 in the test with MYC, in the test with CCNE1 and with MCL-1 was over 5.00 throughout.
Take `O=C(NCC[C@@H]1CCNC1)O[C@@H]1[C@@H](O)CN[C@@H]1Cc1ccc(-c2cnco2)cc1` [V193011, (2R,3S,4S)-4-hydroxy-2-{[4-(1,3-oxazol-5-yl)phenyl]methyl}pyrrolidin-3-yl N-{2-[(3S)-pyrrolidin-3-yl]ethyl}carbamate]: the pIC50 with MYC, in the test on CCNE1 and in the test with MCL-1 was over 5.00 in each case.
On to `O=C(NCc1cccc(C2CNC2)c1)O[C@@H]1[C@@H](O)CN[C@@H]1Cc1ccc(-c2cc(C(F)F)cs2)cc1` [V193243, (2R,3S,4S)-2-(4-(4-(difluoromethyl)thiophen-2-yl)benzyl)-4-hydroxypyrrolidin-3-yl (3-(azetidin-3-yl)benzyl)carbamate], for which the pIC50 in the test on MYC, in the test with CCNE1 and with MCL-1 was over 5.00 in each case.
Take `O=C(NCC[C@@H]1CCNC1)O[C@@H]1[C@@H](O)CN[C@@H]1Cc1ccc(C(F)F)cc1` [V193010, (2R,3S,4S)-2-(4-(difluoromethyl)benzyl)-4-hydroxypyrrolidin-3-yl (2-((S)-pyrrolidin-3-yl)ethyl)carbamate]: the pIC50 (in general, the IC50 on a negative log10 scale, so that one unit is a factor of ten) in the test with MYC was over 5.00; with CCNE1, over 5.00; with MCL-1, 4.70 to 5.00.
For `N#Cc1csc(-c2ccc(C[C@H]3NC[C@H](O)[C@H]3OC(=O)NCc3cccc(F)c3)cc2)c1` [V193129, (2R,3S,4S)-2-(4-(4-cyanothiophene-2-yl)benzyl)-4-hydroxypyrrolidin-3-yl (3-fluorobenzyl)carbamate], the pIC50 in the test on MYC, with CCNE1 and in the test on MCL-1 was over 5.00 in each case.
As for `O=C(NCc1cccc(F)c1)O[C@@H]1[C@@H](O)CN[C@@H]1Cc1ccc(-c2cc(C(F)F)cs2)cc1` [V193142, (2R,3S,4S)-2-(4-(4-(difluoromethyl)thiophen-2-yl)benzyl)-4-hydroxypyrrolidin-3-yl (3-fluorobenzyl)carbamate], the pIC50 in the test on MYC is over 5.00; with CCNE1, 4.70 to 5.00; with MCL-1 it was over 5.00.
With `O=C(NCC[C@@H]1CCCN1)O[C@@H]1[C@@H](O)CN[C@@H]1Cc1ccc(-c2cnn(C(F)F)c2)cc1` [V193080, (2R,3S,4S)-2-(4-(1-(difluoromethyl)-1H-pyrazol-4-yl)benzyl)-4-hydroxypyrrolidin-3-yl (2-((S)-pyrrolidin-2-yl)ethyl)carbamate], the pIC50 with MYC, with CCNE1 and in the test with MCL-1 was over 5.00 in each case.
As for `O=C(NCC[C@@H]1CCNC1)O[C@@H]1[C@@H](O)CN[C@@H]1Cc1ccc(-c2cnn(C(F)F)c2)cc1` [V193081, (2R,3S,4S)-2-(4-(1-(difluoromethyl)-1H-pyrazol-4-yl)benzyl)-4-hydroxypyrrolidin-3-yl (2-((S)-pyrrolidin-3-yl)ethyl)carbamate], the pIC50 in the test on MYC, with CCNE1 and in the test with MCL-1 was over 5.00 throughout.
For the molecule `O=C(NCc1cccc(F)c1)O[C@@H]1[C@@H](O)CN[C@@H]1Cc1ccc(-c2cnn(C(F)F)c2)cc1` [V193079, (2R,3S,4S)-2-(4-(1-(difluoromethyl)-1H-pyrazol-4-yl)benzyl)-4-hydroxypyrrolidin-3-yl (3-fluorobenzyl)carbamate], the pIC50 in the test on MYC, in the test on CCNE1 and in the test on MCL-1 was over 5.00 throughout.
